{
  "source": "patent US8420692B1",
  "about": "“Heterocyclic and carbonate derivatives of NDGA and their use as new anti-HIV and anti-cancer agents” (The Johns Hopkins University, priority 2006, dated 2013)",
  "key": {"[1]": {"system": "HIV Tat-regulated transactivation", "test": "cells", "type": "cell-based", "settings": "for Inhibition (%) of HIV Tat-regulated Transactivation in COS Cells: average of three experiments", "method": "The COS cells were co-transfected with a Tat-producing plasmid and a plasmid containing the HIV LTR linked to the SeAP reporter gene. Transfected cells were treated with various concentrations of 5b P4N. After 48 h, aliquots of media were removed and analysis of SeAP activity was performed. The percent inhibition of SeAP activity by 5b P4N ? was calculated in comparison with the percent of growth inhibition of untransfected COS cells by P4N ?\nThe medium used for dilution of compounds and maintenance of cultures during the assay was the same as described above. Cultures were maintained in disposable tissue culture labware at 37° C. in a humidified atmosphere of CO2 (5.0%) in air. Compounds were dissolved as stock solutions in water or dimethyl sulfoxide (DMSO) at the concentration of 10 mM. The stock solutions were diluted with H2O (5a-d) or DMSO (6a,b and 7) and dilute by medium to the desired concentration by a 30-s vortex just before addition into the cell culture. Triplicate cell samples were seeded at density of ˜1.5×10^4 cell per well in Libro 24-well flat-bottom culture dishes (17-mm diameter), which were incubated for 24 h until they reached 50% confluence. The cells were cotransfected by the calcium phosphate procedure with DNA from plasmids pBC12/CMV/t2 (coding for Tat function, 0.20 μg/well) and pBC12/HIV/SeAP (0.40 μg/well). Cells and DNAs were kept in contact for 6.0 h; then the medium was aspirated and replaced by 500 μL of medium containing the test compound. The compound-treated cells were then incubated for additional 48 h. At the end of incubation, an aliquot of cell culture medium was removed and SeAP activities were analyzed by spectrametric method.^20 The sample of culture medium were heated at 65° C. for 5.0 min to inactivate endogenous phosphatases selectively (SeAP is thermal stable). The buffer solution of 2×SeAP (100 μL, 1.0 M diethanolamine, pH 9.8; 0.50 mM MgCl2; 10 mM L-homoarginine) was added to the culture medium sample (100 μL) in a 96-well flat-bottom culture dish (Corning). Then, the substrate solution ([…], 120 mM, p-nitrophenyl phosphate dissolved in 1×SeAP buffer) was dispensed into each well containing the reaction mixture. The absorbance at wavelength 405 nm specific for the hydrolysis product was read at 2.5 min intervals at 37° C. over the course of 60 min on an EL340i microplate reader (Bio-tek Instruments) with 5 s automatic shaking before each reading.\nTwo plasmid constructs^19 were used to test the effect of synthesized NDGA derivatives on Tat-regulated HIV transactivation as described previously.^12,13,19 The plasmid constructs included a cytomegalovirus (CMV) promoter driven tat gene and SP1 regulated HIV LTR promoter driven reporter gene (i.e., SeAP). A standard SeAP assay in the absence of drug was initially run to find out efficiency of transfection."}, "HSV-2": {"system": "HSV-2", "test": "Efficacy against HSV-2 in a mouse vaginal model", "type": "in vivo", "settings": "for Toxicity in animals: female mice treated locally with 10 mM", "method": "The efficacies of P4N against HSV-2 in a mouse vaginal model system have been examined. Progestin treated female CF-1 mice (10 per group) were infected with HSV-2 in the absence or presence of P4N (in PBS). At the end of three days, the vaginal lavages were collected from the washings of the vaginal regions. The status of the vaginal HSV-2 infection and replication were examined by their cytopathic effects on cultured human foreskin fibroblast cells. Monitoring and scoring were carried out by three persons independently. […] At 10 mM concentration only 2 of 10 mice were weakly infected."}, "[2]": {"system": "colon cancer cell line HT29", "test": "MTT-based cytotoxicity / proliferation assay, HT29", "type": "cell-based, human", "method": "The cytotoxicity of P4N against Vero cells and human cancer cells HEP3B, HT29 and MCF7 was analyzed using an MTT [3-(4,5-dimethylthiazol-2-yl)-2,5-diphenyltetrazolium bromide]-based assay (Sigma). The absorbance of OD570 was a measurement of formazon crystals solubilized in DMSO from metabolically active cells. Procedures were discussed in Huang R C C, et al. in Antiviral Res 58, 57-64 2003.^10\nWe have previously shown that M4N arrests tumor cells growth at G2-M phase of the cell cycle by reducing the level of Cdc2 protein and kinase activity,^17,18 and induces apoptosis by suppressing survivin gene expression and protein stability and activating the mitochondrial apoptosis pathway.^17 M4N is able to reverse the multidrug resistance by inhibiting the Sp1-regulated MDR1 gene expression and preventing the synthesis of p-glycoprotein (Pgp).^24 To investigate the effect of water soluble NDGA derivative P4N on growth of the transformed cells, four cell lines, Vero cell (African green monkey kidney cells), human liver cancer line Hep3B, colon cancer cell line HT29, and human breast cancer line MCF-7 were selected for testing. The Vero cell line is aneuploid."}, "[3]": {"system": "Sp1 cognate binding site DNA (dsOLIGOsp)", "test": "1D NMR titration of the Sp1 cognate binding site", "settings": "FIG. 3", "description": "FIG. 3: 1D 1H NMR spectra of free DNA, free P4N and 1:1 molar ratio DNA:P4N. The resonances with the largest chemical shift perturbation are indicated\nThe titration of the Sp1 cognate binding site with P4N was further studied by 1D NMR (FIG. 3). […] Changes in the chemical shifts and the line-widths of both the DNA and the drug indicate structural perturbations of the DNA upon titration with P4N. […] This is reflected in the split of the well resolved resonances of the carbon-nitrogen ring CH2 protons (which lie in an area of the spectrum that is free of DNA peaks). As shown on both FIG. 3 and FIG. 4 the largest perturbations of the P4N chemical shifts induced upon binding are those of the CH3 protons, aromatic protons and the carbon-nitrogen ring CH2 protons. […] Binding of Sp1 to dsOLIGOsp and binding of P4N to dsOLIGOsp are both reversible as shown in a competitive band-shift analysis (FIG. 6)."}},
  "note": "Counter-ions that a name gives are not always drawn.",
  "data": [
    {"smiles": "C[C@H](Cc1ccc(OCCN2CCCCC2)c(OCCN2CCCCC2)c1)[C@@H](C)Cc1ccc(OCCN2CCCCC2)c(OCCN2CCCCC2)c1", "note": "[Compound 5b, meso-2,3-Dimethyl-1,4-bis(3,4-[2-(piperidino)ethoxyphenyl])butane Tetrakishydrochloride Salt]", "values": [
      {"measurement": "Inhibition (%) of HIV Tat-regulated Transactivation in COS Cells", "setting": "[1]; 0.10 μM", "result": 8.7, "unit": "%"},
      {"measurement": "Inhibition (%) of HIV Tat-regulated Transactivation in COS Cells", "setting": "[1]; 0.25 μM", "result": 4.3, "unit": "%"},
      {"measurement": "Inhibition (%) of HIV Tat-regulated Transactivation in COS Cells", "setting": "[1]; 0.50 μM", "result": 29.0, "unit": "%"},
      {"measurement": "Inhibition (%) of HIV Tat-regulated Transactivation in COS Cells", "setting": "[1]; 1.0 μM", "result": 56.8, "unit": "%"},
      {"measurement": "Inhibition (%) of HIV Tat-regulated Transactivation in COS Cells", "setting": "[1]; 2.5 μM", "result": 90.6, "unit": "%"},
      {"measurement": "Inhibition (%) of HIV Tat-regulated Transactivation in COS Cells", "setting": "[1]; 5.0 μM", "result": 97.0, "unit": "%"},
      {"measurement": "Inhibition (%) of HIV Tat-regulated Transactivation in COS Cells", "setting": "[1]; 10 μM", "result": 99.8, "unit": "%"},
      {"measurement": "Inhibition (%) of HIV Tat-regulated Transactivation in COS Cells", "setting": "[1]; 20 μM", "result": 100, "unit": "%"},
      {"measurement": "Inhibition (%) of HIV Tat-regulated Transactivation in COS Cells", "setting": "[1]; 40 μM", "result": 100, "unit": "%"},
      {"measurement": "Inhibition (%) of HIV Tat-regulated Transactivation in COS Cells", "setting": "[1]; 80 μM", "result": 100, "unit": "%"},
      {"measurement": "Inhibition (%) of HIV Tat-regulated Transactivation in COS Cells", "setting": "[1]; 100 μM", "result": 97.7, "unit": "%"},
      {"measurement": "IC50", "setting": "[1]; COS cells, SeAP, mean of triplicate determinations, read-out: IC50, HIV Tat-regulated transactivation", "result": 880, "unit": "nM"},
      {"measurement": "HIV transactivation at the concentration without effect on cos cell growth", "setting": "[1]; ≦1 μM, FIG. 9", "result": "fully inhibited"},
      {"measurement": "Mice weakly infected with HSV-2", "setting": "HSV-2; 10 mM P4N in PBS, local, female CF-1 mice, 10 per group, day 3 vaginal lavage", "result": "2 of 10"},
      {"measurement": "Average scale of vaginal HSV-2 infection (cytopathic effect score)", "setting": "HSV-2; 10 mM P4N, 2.43 in the absence of P4N", "result": 0.19},
      {"measurement": "Toxicity in animals", "setting": "HSV-2", "result": "no apparent sign of toxicity"},
      {"measurement": "Toxicity in animals", "setting": "HSV-2; listed as P4N", "result": "little or no toxicity"},
      {"measurement": "IC50", "setting": "[2]; 48 hrs, 37° C., read-out: IC50, proliferation of HT-29", "result": 800, "unit": "nM"},
      {"measurement": "Concentration that effectively eliminates growth of tumor cells", "setting": "[2]; HT29, FIG. 11", "result": "< 5", "unit": "µM"},
      {"measurement": "Binding to the DNA (1D NMR titration)", "setting": "[3]", "result": "micro-molar range"}
    ]}
  ]
}
